The text below walks through data of patent US20240148821A1, “PHARMACEUTICAL USE OF CYCLIC PEPTIDE COMPOUND” (CHUGAI SEIYAKU KABUSHIKI KAISHA, priority 2021, published 2024).

Molecules are shown by their SMILES. Numbered stars: 1 amine (or outer) side, 2 acyl side, 3 side chain; on linkers, the order of the positions; unused ones are H or OH. Bridge positions count the residues as written; N and C are the ends. Square brackets hold non-standard residues; d marks the D form. Peptide text beside a SMILES is read from it. * marks the point of attachment. hPhe(3-Cl-4-CF3) = N[C@@H](CCc1ccc(C(F)(F)F)c(Cl)c1)C(=O)O; X65 = O=C([C@H](CCCc1ccc(C(F)(F)F)cc1)N[*:1])[*:2]; hPhe(4-CF3) = N[C@@H](CCc1ccc(C(F)(F)F)cc1)C(=O)O; NEtPhe(4-Me) = CCN[C@@H](Cc1ccc(C)cc1)C(=O)O; NMePhe(4-Cl) = CN[C@@H](Cc1ccc(Cl)cc1)C(=O)O; NMedβ3hAla = C[C@H](CC(=O)[*:2])N(C)[*:1]; X74 = CC(C)(O)C=CCN(CC(=O)[*:2])[*:1]; NMeCha = CN[C@@H](CC1CCCCC1)C(=O)O; Hyp = O=C(O)[C@@H]1C[C@@H](O)CN1; NMeChg = CN[C@H](C(=O)O)C1CCCCC1; NMeF = CN[C@@H](Cc1ccccc1)C(=O)O; NMeD = CN[C@@H](CC(=O)O)C(=O)O; NMeL = CN[C@@H](CC(C)C)C(=O)O; NMeV = CN[C@H](C(=O)O)C(C)C; d(β3hA) = C[C@@H](N)CC(=O)O; NMeA = CN[C@@H](C)C(=O)O; NMeAib = CNC(C)(C)C(=O)O; Piperidide = C1CCN(*)CC1; dNMeA = CN[C@H](C)C(=O)O; Ac5c = NC1(C(=O)O)CCCC1; Aze = O=C(O)[C@@H]1CCN1; Ac4c = NC1(C(=O)O)CCC1; Sar = CNCC(=O)O

This assay concerns the target protein-protein interaction between Kras and SOS1 (biotin-tagged human Kras loaded with GDP, His-tagged human SOS1) (Homo sapiens (Human), UniProt P01116, G12D). Briefly: Protein-protein interaction inhibition between Kras and SOS1 (KrasG12D-SOS PPI) using AlphaScreen.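 Note: kras produced in E. coli, Ni-coupled donor beads and streptavidin acceptor beads, excitation 680 nm with emission detected at 520–620 nm via singlet oxygen transfer.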 The class given is biochemical. Conditions: AlphaScreen; biotin-tagged human Kras loaded with GDP, His-tagged human SOS1; read-out: KRAS G12D-SOS PPI IC50.
With `CC[C@H](C)[C@@H]1NC(=O)[C@H](C)N(C)C(=O)C[C@@H](C)N(C)C(=O)[C@H](CC(C)C)NC(=O)C(C)(C)N(C)C(=O)[C@H](CC(C)C)NC(=O)[C@H](CCc2ccc(C(F)(F)F)c(Cl)c2)NC(=O)[C@@H](C)N(C)C(=O)[C@H](CC2CCCCC2)N(C)C(=O)CN(C)C(=O)CN(C)C1=O` [Compound 1390] (cyclo(I[Sar][Sar][NMeCha][dNMeA][hPhe(3-Cl-4-CF3)]L[NMeAib]L[NMedβ3hAla][NMeA])), the IC50 came to 280 nM.
For `CCO[C@@H]1C[C@H]2C(=O)NC3(CCC3)C(=O)N(C)[C@@H](C3CCCCC3)C(=O)N(C)[C@H](C)CC(=O)N(C)[C@@H](CC(C)C)C(=O)N[C@@H]([C@@H](C)CC)C(=O)N(C)[C@@H](C)C(=O)N3CC[C@H]3C(=O)N(CC)[C@@H](Cc3ccc(C)cc3)C(=O)N(C)CC(=O)N[C@@H](CCc3ccc(C(F)(F)F)c(Cl)c3)C(=O)N2C1` [Compound 928] (cyclo([Ac4c][NMeChg][NMedβ3hAla][NMeL]I[NMeA][Aze][NEtPhe(4-Me)][Sar][hPhe(3-Cl-4-CF3)][Hyp](Et))), the IC50 turned out to be 27 nM.
Regarding `CC[C@H](C)[C@@H]1NC(=O)[C@H](CC(C)C)N(C)C(=O)C[C@@H](C(=O)N2CCCCC2)N(C)C(=O)[C@H](C2CCCCC2)N(C)C(=O)C2(CCCC2)NC(=O)CN(CC=CC(C)(C)O)C(=O)[C@H](CCc2ccc(C(F)(F)F)c(Cl)c2)NC(=O)CN(C)C(=O)[C@H](CC2CCCCC2)N(C)C(=O)CN(C)C(=O)CN(C)C1=O` [Compound 2047, (11S,17S,26S,29S,33S,36S)-11-[2-[3-chloro-4-(trifluoromethyl)phenyl]ethyl]-36-cyclohexyl-17-(cyclohexylmethyl)-9-(4-hydroxy-4-methyl-pent-2-enyl)-29-isobutyl-15,18,21,24,30,34,37-heptamethyl-26[(1S)-1-methylpropyl]-33-(piperidine-1-carbonyl)-6,9,12,15,18,21,24,27,30,34,37-undecazaspiro[4.33]octatriacontane-7,10,13,16,19,22,25,28,31,35,38-undecone] ([NMeL]I[Sar][Sar][NMeCha][Sar][hPhe(3-Cl-4-CF3)][X74][Ac5c][NMeChg][NMeD]-Piperidide; lactam N-11), the IC50 came out at 5.7 nM.
`CC[C@H](C)[C@@H]1NC(=O)[C@H](C)N(C)C(=O)C[C@@H](C(=O)N2CCCCC2)N(C)C(=O)[C@H](C2CCCCC2)N(C)C(=O)C2(CCCC2)NC(=O)[C@@H]2CCCN2C(=O)[C@H](CCCc2ccc(C(F)(F)F)cc2)NC(=O)CN(C)C(=O)[C@H](CC2CCCCC2)N(C)C(=O)CN(C)C(=O)CN(C)C1=O` [Compound 2055, (3S,9S,18S,21S,25S,28S,34S)-28-cyclohexyl-9-(cyclohexylmethyl)-7,10,13,16,21,22,26,29-octamethyl-18-[(1S)-1-methylpropyl]-25-(piperidine-1-carbonyl)-3-[3-[4-(trifluoromethyl)phenyl]propyl]spiro[1,4,7,10,13,16,19,22,26,29,32-undecazabicyclo[32.3.0]heptatriacontane-31,1′-cyclopentane]-2,5,8,11,14,17,20,23,27,30,33-undecone] ([NMeA]I[Sar][Sar][NMeCha][Sar][X65]P[Ac5c][NMeChg][NMeD]-Piperidide; lactam N-11): the IC50 is 27 nM.
On to `CC[C@H](C)[C@@H]1NC(=O)[C@H](C)N(C)C(=O)C[C@@H](C)NC(=O)[C@H](C(C)C)N(C)C(=O)[C@H](Cc2ccccc2)N(C)C(=O)[C@H](CC(C)C)N(C)C(=O)[C@H](CCc2ccc(C(F)(F)F)cc2)NC(=O)CN(C)C(=O)[C@H](Cc2ccc(Cl)cc2)N(C)C(=O)CN(C)C(=O)CN(C)C1=O` [Compound 51] (cyclo(I[Sar][Sar][NMePhe(4-Cl)][Sar][hPhe(4-CF3)][NMeL][NMeF][NMeV][d(β3hA)][NMeA])), for which the IC50 turned out to be 90 nM.
